Measured values reported in patent US7045495B2 (Sloan-Kettering Institute for Cancer Research, priority 1996, dated 2006).
Where “and” joins values, the source holds several entries; their conditions need not be identical. Identical values can stand only once.

What was measured:
MKN-74 [1] = assay: cytotoxicity, Alamar Blue Assay; type: cell-based, human; conditions: 24 hours; RO 32-2241 10^-6 M, Mitomycin-C 5 μg/ml
Source text: It has been shown that PKC activity can act as an antagonist to apoptosis, whereas PKC inhibition can promote apoptosis. These observations imply that one function of PKC stimulated processes is to inhibit the induction of programmed cell death. Thus, anti-tumor effects of chemotherapeutic agents may be potentiated by PKC inhibitors that contribute to the induction of apoptosis after drug-induced damage. In order to test this hypothesis we have used the human gastric cancer cell MKN-74 to determine whether RO 32-2241 would enhance the cytotoxic effect of the chemotherapeutic agent Mitomycin-C (MMC). Cytotoxicity was measured and quantified using the Alamar Blue Assay. Cells were treated according to one of four conditions: (i) no drug (control) for 24 hours, (ii) RO 32-2241 alone at 10–6 M, (iii) Mitomycin-C alone at 5 μg/ml for 24 hours, (iv) the combination of RO 32-2241 (10^-6 M) and Mitomycin-C (5 μg/ml) for 24 hours. The results are summarized below for percent survival: […]

MKN-74 [2] = assay: clonogenic assay, resistance relative to MKN-74; type: cell-based, human; conditions: MKN-74 (reference); 10 μg/ml CDDP, 5 μg/ml MMC, 50 FM 5-FU
Source text: (§1) The basis of drug resistance in these disease has not been well defined. […] For gastric cancer applicants have been successful in establishing five long-term cell lines, SK-GT-1, SK-GT-2, SK-GT-4, SK-GT-5, and SK-GT-6 for Sloan Kettering Gastric Tumor (12,13) none of which express P-glycoprotein (14). Yet, all these tumors are resistant to chemotherapy and to the induction of apoptosis. Applicants have reported that the relative sensitivity of these gastric cancer cells to chemotherapy is influenced by their p53 status (14).

NU-GC-4 = assay: clonogenic assay, resistance relative to MKN-74; type: cell-based, human; conditions: 10 μg/ml CDDP, 5 μg/ml MMC
Source text: as §1

SK-GT-1 = assay: clonogenic assay, resistance relative to MKN-74; type: cell-based, human; conditions: clonogenic survival ratio, 10 μg/ml CDDP, 5 μg/ml MMC, 50 FM 5-FU
Source text: as §1

SK-GT-2 = assay: clonogenic assay, resistance relative to MKN-74; type: cell-based, human; conditions: 10 μg/ml CDDP, 5 μg/ml MMC, 50 FM 5-FU
Source text: as §1

SK-GT-5 = assay: clonogenic assay, resistance relative to MKN-74; type: cell-based, human; conditions: 10 μg/ml CDDP, 5 μg/ml MMC, 50 FM 5-FU
Source text: as §1

SK-GT-2 cells = assay: apoptosis by QFM, Hoechst-33258 staining; type: cell-based, human; conditions: 24 hours
Protocol: (i) Safingol enhances MMC-induced apoptosis: SK-GT-5 cells, which have a mutated p53 gene (9), were treated with safingol in the presence or absence of MMC for 24 hours. For determination of apoptosis SK-GT-5 cells were treated according to one of several conditions: (i) no drug (control) for 24 hours, (ii) Safingol alone (50 μM) for 24 hours. (This concentration represents the highest non-toxic dose of safingol for the SK-GT-5 cells, as determined by cell proliferation studies, and slightly exceeds the safingol concentration (30 μM) which inhibits PKC enzyme activity by 50% in vitro.), (iii) Mitomycin-C alone (2.5 μg/ml) for 24 hours, (iv) Mitomycin-C alone (5 μg/ml) for 24 hours, (v) the combination of safingol (50 μM) and Mitomycin-C (2.5 μg/ml) for 24 hours, (vi) the combination of safingol (50 μM) and Mitomycin-C (5 μg/ml) for 24 hours. Apoptosis was measured by quantitative fluorescent microscopy (QFM) of nuclear changes induced by apoptosis, as determined by bisbenzimide trihydrochloride (Hoescht-33258) staining of condensed nuclear chromatin (3,5). For the QFM duplicate samples of 500 cells each were counted and scored for the incidence of apoptotic chromatin condensation using an Olympus BH-2 fluorescence microscope.
(ii) UCN-01 enhances MMC-induced apoptosis: SK-GT-2 cells, which have a mutation in p53, were treated with increasing concentrations of UCN-01 in the presence or absence of a fixed dose of MMC for 24 hours.
Both UCN-01 and Flavo inhibit PKC. These drugs are cytotoxic to tumor cells and have been reported to induce apoptosis. […] In order to test this hypothesis we elected to treat gastric cancer cells, MKN-74 and SK-GT-2, as well as breast cancer cells, MDA-MB-468, with UCN-01 (7.5 to 10 μM) or Flavo (300 nM) in the presence or absence of MMC (5 μg/ml) or Taxol (50 μM) for 24 hours. Induction of apoptosis was estimated by counting the frequency of condensed nuclear chromatin with Hoechst-33258 stain in duplicate samples of 400 cells.

16C mammary carcinoma = conditions: safingol 5 to 20 mg/kg; cited from earlier work
[3] = phase I trial safingol with doxorubicin: plasma pharmacokinetics; type: in vivo, patients; conditions: human, intravenous
Protocol: (iii) Safingol pharmacokinetics appear linear with increasing dose: The pharmacokinetics of patients treated with safingol and DOX at 45 mg/m^2 is shown below: […]

[4] = rat, in vivo; cited from earlier work
PKC = conditions: cited from earlier work
[5] = target: cyclic-adenosine monophosphate-dependent protein kinase A; conditions: read-out: concentration for 50% inhibition of protein kinase A; safingol; cited from earlier work
[6] = preclinical pharmacology of safingol; conditions: mouse, in vivo, mice
Protocol: Based on the mice studies applicants have predicted that in order to achieve meaningful chemopotentiation with either DOX or cisplatin applicants need to deliver the equivalent mouse dose of 5 mg/kg to 20 mg/kg safingol. […] From the pharmacology data obtained thus far from the patients treated with escalating doses of safingol and 45 mg/m^2 of DOX, it appears that applicants are approaching these target levels.

case in kinase = conditions: read-out: concentration for 50% inhibition of case in kinase; safingol; cited from earlier work
[7] = intravenous safingol in emulsion; cited from earlier work

CO[C@@]12[C@H](COC(N)=O)C3=C(C(=O)C(C)=C(N)C3=O)N1C[C@@H]1N[C@@H]12 [MMC, Mitomycin-C]
Percent survival (MKN-74 [1]): 87% | Fold-Increase in Resistance Relative to MKN-74 (p53wt) (MKN-74 [2]): 1X | Fold-Increase in Resistance Relative to MKN-74 (p53wt) (NU-GC-4): 10X | Fold-Increase in Resistance Relative to MKN-74 (p53wt) (SK-GT-1): 166X | Fold-Increase in Resistance Relative to MKN-74 (p53wt) (SK-GT-2): 106X | Fold-Increase in Resistance Relative to MKN-74 (p53wt) (SK-GT-5): 55X | percentage of cells undergoing apoptosis (QFM) (SK-GT-2 cells; MMC alone 5.0 μg/ml): 7%±3% | induction of apoptosis (condensed chromatin, 400 cells) (SK-GT-2 cells; UCN-01 7.5 to 10 μM, MMC 5 μg/ml): 11% ± 2

CCCCCCCCCCCCCCC[C@H](O)[C@@H](N)CO [safingol, L-threo-dihydrosphingosine]
effect on tumor cell growth, single agent (16C mammary carcinoma): no effect on inhibiting tumor cell growth | Cmax ([3]; 15 mg/m2, dose level 15 mg/m^2): 199 ng/mL | AUC ([3]; 15 mg/m2, dose level 15 mg/m^2, read-out: AUC without DOX (first column)): 168 ng·h/mL | AUC ([3]; 15 mg/m2, dose level 15 mg/m^2, read-out: AUC without DOX (second column)): 161 ng·h/mL | Cmax ([3]; 30 mg/m2, dose level 30 mg/m^2): 336 ng/mL | AUC ([3]; 30 mg/m2, dose level 30 mg/m^2, read-out: AUC without DOX (first column)): 501 ng·h/mL | AUC ([3]; 30 mg/m2, dose level 30 mg/m^2, read-out: AUC without DOX (second column)): 428 ng·h/mL | Cmax ([3]; 60 mg/m2, dose level 60 mg/m^2): 422 ng/mL | AUC ([3]; 60 mg/m2, dose level 60 mg/m^2, read-out: AUC without DOX (first column)): 531 ng·h/mL | AUC ([3]; 60 mg/m2, dose level 60 mg/m^2, read-out: AUC without DOX (second column)): 501 ng·h/mL | Cmax ([3]; 120 mg/m2, dose level 120 mg/m^2): 988 ng/mL | AUC ([3]; 120 mg/m2, dose level 120 mg/m^2, read-out: AUC without DOX (first column)): 1230 ng·h/mL | AUC ([3]; 120 mg/m2, dose level 120 mg/m^2, read-out: AUC without DOX (second column)): 1230 ng·h/mL | potentiation of toxicity of chemotherapeutic agents [4]: did not potentiate the myelotoxicity of these agents | concentration range that inhibits PKC activity (PKC): micromolar ranges | IC50 (PKC; safingol, in vitro, read-out: concentration which inhibits PKC enzyme activity by 50%): 33 µM and 30 µM | IC50 [5]: > 218 µM | AUC ([6]; 5 mg/kg safingol): 668 ng·h/mL | Cmax ([6]; 5 mg/kg safingol): 1800 ng/mL | AUC ([6]; 20 mg/kg safingol): 2700 ng·h/mL | Cmax ([6]; 20 mg/kg safingol): 7020 ng/mL | IC50 (case in kinase): > 218 µM | clinical pathology and histopathology findings [7]: venous irritation and transient intravascular hemolysis
